Results on one compound are retold here after paper PMC6410202, “Dual Action of the PN159/KLAL/MAP Peptide: Increase of Drug Penetration across Caco-2 Intestinal Barrier Model by Modulation of Tight Junctions and Plasma Membrane Permeability” (Pharmaceutics, 2019).

This series relates to Caco-2 cells. Nature of the series: Impedance measurement (RTCA), Caco-2 cells. The conditions noted are these: PN159 1-100 μM, 1-h or one-day treatment. The series is classed as cell-based. How it is done:
Kinetics of epithelial cell reaction to PN159 peptide treatment was monitored by impedance measurement at 10 kHz (RTCA-SP instrument, ACEA Biosciences, San Diego, CA, USA). Impedance measurement is non-invasive, label-free and real time, and linearly correlates with adherence, growth, number and viability of cells. For background measurements 50 μL cell culture medium was added to the wells, then cells were seeded at a density of 6 × 10^3 cells/well to the coated 96-well plates with integrated gold electrodes (E-plate 96, ACEA Biosciences). Cells were cultured for 5–7 days in a CO2 incubator at 37 °C and monitored every 10 min until the end of experiments. Cells were treated with PN159 peptide solutions at 1, 3, 10, 30 and 100 μM concentrations at the beginning of the plateau phase of growth and the effects were followed for 1-h or 24 h. To measure cell recovery, peptide solutions were changed to culture medium and the impedance was monitored for one week. Culture medium was changed every 2 days. Caco-2 cells were also treated with the three selected CPPs, Pep-1, R8 and φ-peptide, at 100 μM concentrations at the beginning of the plateau phase of cell growth for 24-h. Triton X-100 detergent (1 mg/mL) was used as a reference compound to induce cell death. Cell index was defined as Rn-Rb at each time point of measurement, where Rn is the cell-electrode impedance of the well when it contains cells and Rb is the background impedance of the well with the medium alone.

With `CC(C)C[C@H](NC(=O)[C@H](C)NC(=O)[C@H](CCCCN)NC(=O)[C@H](CC(C)C)NC(=O)[C@H](C)NC(=O)[C@H](CC(C)C)NC(=O)[C@H](CCCCN)NC(=O)[C@H](CC(C)C)NC(=O)[C@H](C)NC(=O)[C@H](CC(C)C)NC(=O)[C@@H](N)CCCCN)C(=O)N[C@@H](CCCCN)C(=O)N[C@@H](C)C(=O)N[C@@H](C)C(=O)N[C@@H](CC(C)C)C(=O)N[C@@H](CCCCN)C(=O)N[C@@H](CC(C)C)C(=O)N[C@@H](C)C(N)=O` [PN159], the “Cell impedance (normalized cell index)” value was “only the two highest peptide concentrations decreased the cell impedance”.
